This is an account of results in patent publication US4767621A (priority 1982, dated 1988).

Structures are written as SMILES.

One series deals with mouse. Conditions: intra-peritoneally, Westley 1977; cited from earlier work.
Series [1] deals with human T lymphoblastoid cells of the CEM line bearing the antigen T-65.
Series [2] can be described thus: Acute toxicity of monensin, single intra-peritoneal administration (own experiments). The series is classed as in vivo, mouse. The conditions noted are these: mouse, in vivo, ip; single administration intra-peritoneally; read-out: 50% lethal dose, per body weight. The procedure: (§1) Thus the acute toxicity of monensin in a single administration intra-peritoneally in the Charles River France mouse is characterised by a 50% lethal dose of 340 micrograms per mouse, namely 17 mg/kg of body weight.

Series [3] relates to Charles River France mouse. The series is described as above. Conditions: single administration intra-peritoneally. The series is classed as in vivo. As to the method:
as §1

Regarding `CC[C@@H](C(=O)[C@@H](C)[C@@H](O)[C@H](C)CCc1ccc(C)c(O)c1C(=O)O)[C@H]1O[C@](CC)([C@H]2CC[C@](O)(CC)[C@H](C)O2)C[C@@H]1C` [Lasalocide, lasalocide], in the series on mouse, the “50% lethal dose (LD50)” value is recorded as 64 mg/kg. For the same molecule, in series [1], the “potentiating effect (factor) on the cytotoxicity of immunotoxin anti-T-65” value (shortened to “potentiating effect (factor)”) is about 36000 and the “spontaneous cytotoxicity of the ionophore for the cells employed” value (“spontaneous cytotoxicity” below) is “not spontaneously cytotoxic”.
As to `CC[C@@]1([C@@H]2O[C@@H]([C@H]3O[C@@](O)(CO)[C@H](C)C[C@@H]3C)C[C@@H]2C)CC[C@H]([C@]2(C)CC[C@]3(C[C@H](O)[C@@H](C)[C@@H]([C@@H](C)[C@@H](OC)[C@H](C)C(=O)O)O3)O2)O1` [Monensin, monensin], the “50% lethal dose (LD50)” value in the series on mouse is given as 16.8 mg/kg. Further, in series [1], the “potentiating effect (factor)” value is about 55000 and the “spontaneous cytotoxicity” value is recorded as “not spontaneously cytotoxic”. Also, the LD50 in series [2] amounted to 17 mg/kg. In series [3], the “50% lethal dose, per mouse” value worked out at 340 micrograms per mouse.
Regarding `CO[C@@H]1C[C@@H](C[C@H]2CC[C@H](C)[C@H]([C@@H](C)C(=O)O)O2)O[C@]2(O[C@](C)([C@H]3CC[C@@](C)([C@@H]4O[C@@H]([C@H]5O[C@@](O)(CO)[C@H](C)C[C@@H]5C)C[C@@H]4C)O3)C[C@H]2C)[C@@H]1C` [Nigericin, nigericin], the “50% lethal dose (LD50)” value in the series on mouse is recorded as 65 mg/kg. Also, in series [1], the “potentiating effect (factor)” value is about 7000 and the “spontaneous cytotoxicity” value is recorded as “not spontaneously cytotoxic”.
